Assay results as given in US9451775B2, “Heterocyclic compounds as pesticides” (Bayer Intellectual Property GmbH, priority 2008, dated 2016).
Like-named read-outs stand apart in the source and are kept apart here.

Assays:
[1] = system: green peach aphid (Myzus persicae); assay: Myzus test (spray treatment); format: in vivo; conditions: foliar, read-out: activity (effect in %, aphids killed)
Description: Myzus Test (Spray Treatment)
• Solvents: 78.0 parts by weight of acetone • 1.5 parts by weight of dimethylformamide • Emulsifier: 0.5 part by weight of alkylaryl polyglycol ether
To produce a suitable preparation of active compound, 1 part by weight of active compound is mixed with the stated amounts of solvents and emulsifier, and the concentrate is diluted with emulsifier-containing water to the desired concentration.
Discs of leaves of Chinese cabbage (Brassica pekinensis) which are heavily infested by all stages of the green peach aphid (Myzus persicae) are sprayed with an active compound preparation of the desired concentration.
After the desired period of time, the effect in % is determined. 100% means that all aphids have been killed; 0% means that none of the aphids have been killed.

[2] = logP determination by HPLC (formic acid method); format: physicochemical; conditions: acidic range (pH 3.4), 55° C., read-out: logP (HCOOH)
Description: 1) Description of the method for determining the logP values (formic acid method)
The logP values given in the table were determined in accordance with EEC Directive 79/831 Annex V.A8 by HPLC (High Performance Liquid Chromatography) on a reversed-phase column (C18). Temperature: 55° C.
Mobile phases for the determination in the acidic range (pH 3.4):
Mobile phase A: Acetonitrile+1 ml of formic acid/litre. Mobile phase B: water+0.9 ml of formic acid/litre.
Gradient: from 10% mobile phase A/90% mobile phase B to 95% mobile phase A/5% mobile phase B in 4.25 min.
Calibration was carried out using unbranched alkan-2-ones (having 3 to 16 carbon atoms) with known logP values (determination of the logP values by the retention times using linear interpolation between two successive alkanones). The lambda max values were determined in the maxima of the chromatographic signals using the UV spectra from 200 nm to 400 nm.

[3] = application rate of 500 g/ha, sprayed Chinese cabbage leaf discs
[4] = reversed-phase HPLC column (C18), pH 3.4, HPLC on reversed-phase column (C18)

| chromatographic logP [2, 4] | SMILES | pest or weed control at 500 g/ha [1, 3] [%] | pest or weed control at 500 g/ha ([1]; in Brassica rapa) [%] | chromatographic logP ([2]; HPLC on reversed-phase column (C18)) |
| --- | --- | --- | --- | --- |
| 2.2 | Cc1nc(-c2cccnc2)sc1-c1ccn(CC(F)(F)F)n1 [compound 23] | ≥ 80 |  |  |
| 2.94 | Cc1nc(-c2cccnc2)sc1-c1ccn(-c2ccccn2)n1 [compound 24] | ≥ 80 |  |  |
| 2.39 | Cc1nc(-c2cccnc2)sc1-c1cccc(C2OCCO2)c1 [compound 25] | ≥ 80 |  |  |
| 1.47 | Cc1nc(-c2cccnc2)sc1-c1ccnn1-c1ncccn1 [compound 26] | ≥ 80 |  |  |
| 3.08 | Cc1nc(-c2cccnc2)sc1-n1ccc(-c2ccccc2)n1 [compound 28] | ≥ 80 |  |  |
| 1.47 | Cc1nc(-c2cccnc2)sc1-c1ccnc(-c2ccccn2)n1 [compound 29] | ≥ 80 |  |  |
| 2 | Cc1nc(-c2sc(-c3cccnc3)nc2C)cs1 [compound 30] | ≥ 80 |  |  |
| 2.66 | Cc1nc(-c2cccnc2)sc1-c1cccc(Cl)n1 [compound 31] | ≥ 80 |  |  |
| 1.23 | Cc1nc(-c2cccnc2)sc1-c1cccc(=O)[nH]1 [compound 32] | ≥ 80 |  |  |
| 2.21 | CSc1cnn(-c2sc(-c3cccnc3)nc2C)c1 [compound 33] | ≥ 80 |  |  |
| 2.84 | Cc1nc(-c2cccnc2)sc1-n1ccc(-c2cccs2)n1 [compound 34] | ≥ 80 |  |  |
| 1.92 | Cc1nc(-c2cccnc2)sc1-n1ccc([N+](=O)[O-])n1 [compound 35] | ≥ 80 |  |  |
| 3.33 | Cc1nc(-c2cccnc2)sc1-n1ccc(-c2ccccc2F)n1 [compound 36] | ≥ 80 |  |  |
| 3.81 | Cc1nc(-c2cccnc2)sc1-n1ccc(-c2ccc(Cl)s2)n1 [compound 37] | ≥ 80 |  |  |
| 3.94 | Cc1nc(-c2cccnc2)sc1-n1ccc(-c2ccccc2C(F)(F)F)n1 [compound 38] | ≥ 80 |  |  |
| 1.55 | Cc1nc(-c2cccnc2)sc1-n1cc(-c2ccccn2)cn1 [compound 39] | ≥ 80 |  |  |
| 2.43 | Cc1nc(-c2cccnc2)sc1-n1ccc(-c2ccco2)n1 [compound 40] | ≥ 80 |  |  |
| 2.03 | Cc1nc(-c2cccnc2)sc1-c1ccnc(-c2ncccc2Cl)n1 [compound 41] | ≥ 80 |  |  |
| 3.97 | Cc1nc(-c2cccnc2)sc1-c1cccc(-c2ccccc2Cl)n1 [compound 42] | ≥ 80 |  |  |
| 1.86 | Cc1nc(-c2cccnc2)sc1-c1cncc(-c2cc(C)n(C)n2)n1 [compound 43] | ≥ 80 |  |  |
| 2.4 | Cc1cc(-c2nccc(-c3sc(-c4cccnc4)nc3C)n2)n(C)n1 [compound 44] | ≥ 80 |  |  |
| 2.95 | Cc1nc(-c2cccnc2)sc1-c1ccnc(C(F)(F)Cl)n1 [compound 45] | ≥ 80 |  |  |
| 2.47 | Cc1nc(-c2cccnc2)sc1-c1ccnc(-c2cccc(Cl)n2)n1 [compound 46] | ≥ 80 |  |  |
| 1.48 | Cc1cc(=O)n(-c2nccc(-c3sc(-c4cccnc4)nc3C)n2)[nH]1 [compound 47] | ≥ 80 |  |  |
| 2.08 | Cc1nc(-c2cccnc2)sc1-c1ccnc(-c2ncc(F)cc2F)n1 [compound 48] | ≥ 80 |  |  |

| chromatographic logP [2, 4] | SMILES | pest or weed control at 500 g/ha [1, 3] [%] | pest or weed control at 500 g/ha ([1]; in Brassica rapa) [%] | chromatographic logP ([2]; HPLC on reversed-phase column (C18)) |
| --- | --- | --- | --- | --- |
| 1.59 | Cc1nc(-c2cccnc2)sc1-c1ccnc(-c2cnccn2)n1 [compound 51] | ≥ 80 |  |  |
| 2.35 | Cc1nc(-c2cccnc2)sc1-c1ccnc(-c2ccco2)n1 [compound 52] | ≥ 80 |  |  |
| 1.58 | COC(=O)/C(=N\O)c1nccc(-c2sc(-c3cccnc3)nc2C)n1 [compound 53] | ≥ 80 |  |  |
| 1.49 | Cc1cccc(-c2nccc(-c3sc(-c4cccnc4)nc3C)n2)n1 [compound 54] | ≥ 80 |  |  |
| 1.49 | Cc1ccc(-c2nccc(-c3sc(-c4cccnc4)nc3C)n2)nc1C [compound 55] | ≥ 80 |  |  |
| 2.08 | Cc1nc(-c2nccc(-c3sc(-c4cccnc4)nc3C)n2)cs1 [compound 56] | ≥ 80 |  |  |
| 1.88 | CCc1cccc(-c2nccc(-c3sc(-c4cccnc4)nc3C)n2)n1 [compound 57] | ≥ 80 |  |  |
| 2.25 | CCCc1cccc(-c2nccc(-c3sc(-c4cccnc4)nc3C)n2)n1 [compound 58] | ≥ 80 |  |  |
| 2.12 | COc1cc(OC)nc(-c2nccc(-c3sc(-c4cccnc4)nc3C)n2)n1 [compound 59] | ≥ 80 |  |  |
|  | Cc1nc(-c2cccnc2)sc1-c1ccnc(C(F)(F)C(F)(F)C(F)(F)F)n1 [compound 60] |  | ≥ 80 | 3.84 |
| 1.57 | COCc1nccc(-c2sc(-c3cccnc3)nc2C)n1 [compound 61] | ≥ 80 |  |  |
| 3.23 | Cc1nc(-c2cccnc2)sc1-c1nc(C(C)C)no1 [compound 62] | ≥ 80 |  |  |
| 2.51 | Cc1nc(-c2cccnc2)sc1-c1nc(-c2cccnc2)no1 [compound 63] | ≥ 80 |  |  |
| 3.34 | Cc1nc(-c2cccnc2)sc1-c1nc(C(F)(F)F)no1 [compound 64] | ≥ 80 |  |  |
| 1.36 | Cc1cc(C)nc(-c2nccc(-c3sc(-c4cccnc4)nc3C)n2)c1 [compound 65] | ≥ 80 |  |  |
| 2.9 | Cc1nc(-c2cccnc2)sc1-c1ccnc(-n2[nH]c(C(F)(F)F)cc2=O)n1 [compound 66] | ≥ 80 |  |  |
| 1.9 | c1cnc(N2CCOC(c3cnc(-c4cccnc4)s3)=N2)nc1 [compound 67] | ≥ 80 |  |  |
| 1.62 | Cc1nc(-c2cccnc2)sc1-c1cccc(S(C)(=O)=O)n1 [compound 68] | ≥ 80 |  |  |
| 1.2 | Cc1nc(-c2cccnc2)sc1-c1ccnc(Cn2cncn2)n1 [compound 69] | ≥ 80 |  |  |
| 1.4 | c1cnc(-c2noc(-c3cnc(-c4cccnc4)s3)n2)nc1 [compound 70] | ≥ 80 |  |  |
| 2.7 | FC(F)(F)c1noc(-c2cnc(-c3cccnc3)s2)n1 [compound 71] | ≥ 80 |  |  |
| 3.11 | Cc1nc(-c2cccnc2)sc1-c1nc(-c2cc3ccccc3cn2)no1 [compound 72] | ≥ 80 |  |  |
| 2.34 | Cc1nc(-c2cccnc2)sc1-c1nc(-c2nc(C)c(C)c(C)n2)no1 [compound 73] | ≥ 80 |  |  |
| 2.81 | COc1cc(OC)nc(-c2noc(-c3sc(-c4cccnc4)nc3C)n2)n1 [compound 74] | ≥ 80 |  |  |
